Data set [1] relates to lipase AY 30 deposited on Hyflo Super Cell. Nature of the data set: Solvent effect on lipase AY 30 deposited on Hyflo Super Cell catalyzed deacetylation of SOA. To be noted: immobilized lipase AY 30, 24 hrs. Type of data set: biochemical, Candida cylindracea. The protocol:
(§1) Alcalase and lipase AY 30 were deposited on Hyflo Super Cell and used as catalysts for SOA deacetylation reactions in several anhydrous solvents.
(§2) Enzyme immobilization. The pH of a solution of 900 mg of buffered alcalase in 18 ml of water was adjusted to 9.0 with dilute NaOH. Hyflo super cell (6 g) was added and the slurry thoroughly mixed. […] Lipase AY 30 was immobilized in the same manner except that the protein solution was adjusted to pH 7.0 with sodium phosphate.
(§3) Enzyme and Solvent Screening for SOA Deacetylation. A scintillation vial was charged successively with 100 mg of powdered enzyme as received or prepared as described and 1.0 ml of 20 mM sucrose octaacetate (SOA) dissolved in an organic solvent. Following a 5 sec sonication, the vial was incubated in a controlled-temperature shaker at 45° C. and 300 RPM for 24 hrs. A 200 μl aliquot of the reaction mixture was withdrawn and centrifuged. The supernatant was collected and evaporated under a stream of N2. The residue was reconstituted in 200 μl of acetonitrile and 10 μl of this solution was analyzed by HPLC.

The target in a further data set is T1, alcalase (Bacillus licheniformis, UniProt P00780).
T1 construct: purchased Novo Nordisk (gift)
T1 sequence (P00780 106-379): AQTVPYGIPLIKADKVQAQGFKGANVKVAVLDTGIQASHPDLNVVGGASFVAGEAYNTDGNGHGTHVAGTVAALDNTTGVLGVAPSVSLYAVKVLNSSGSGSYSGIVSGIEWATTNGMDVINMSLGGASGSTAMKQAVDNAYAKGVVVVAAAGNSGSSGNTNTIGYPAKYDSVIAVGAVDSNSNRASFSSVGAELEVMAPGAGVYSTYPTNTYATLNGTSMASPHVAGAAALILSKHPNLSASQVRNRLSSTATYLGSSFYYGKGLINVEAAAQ
Nature of the data set: Solvent effect on alcalase catalyzed deacetylation of SOA. Type of data set: biochemical. Conditions: 24 hrs; for SheptaA: total of 1'-OH and 6'-OH heptaacetates; for SOA / ShexaA: solvent as labelled. Here is the method:
(§4) Identical enzyme catalyzed SOA deacetylations were run in numerous anhydrous solvents. After 24 hrs incubation an aliquot was analyzed by HPLC.
Enzyme Precipitation. Alcalase was prepared by adding 37.5 ml cold acetone (-20° C.) to 25 ml of alcalase solution as supplied by Novo. The aqueous acetone was decanted and the residue dissolved in 25 ml of pH 9.0 glycine--NaOH buffer. The pH of this solution was adjusted to 9.0 with a few drops of dilute NaOH solution. Cold acetone (37.5 ml at -20° C.) was added to the buffered alcalase solution and the precipitate collected by filtration on a medium porosity glass funnel and dried overnight at 2 millitorr. The resulting pellet was ground to a fine powder and stored at 4° C. over saturated aqueous potassium carbonate (RH: 43%) for 24 hrs.
as §3

For data set [2], the system named is lipase AY 30. Nature of the data set: Effect of the solvent on lipase AY 30 SOA deacetylation. Type of data set: biochemical, Candida cylindracea. To be noted: lipase AY 30, solvent as labelled, 24 hrs. Here is the method: as §4, §3
The subject of data set [3] is alcalase deposited on Hyflo Super Cell. Nature of the data set: Solvent effect on alcalase deposited on Hyflo Super Cell catalyzed deacetylation of SOA. Type of data set: biochemical, Bacillus licheniformis. Conditions: immobilized alcalase, 4 hour incubation; for SheptaA: total of 1'-OH and 6'-OH heptaacetates. The protocol:
as §1, §2
Enzyme and Solvent Screening for SOA Deacetylation. A scintillation vial was charged successively with 100 mg of powdered enzyme as received or prepared as described and 1.0 ml of 20 mM sucrose octaacetate (SOA) dissolved in an organic solvent. […] A 200 μl aliquot of the reaction mixture was withdrawn and centrifuged. The supernatant was collected and evaporated under a stream of N2. The residue was reconstituted in 200 μl of acetonitrile and 10 μl of this solution was analyzed by HPLC.

For data set [4] the following is noted: n-octanol/water, cited from earlier work.
In the next data set the test system is lipase AP 12. Put plainly: Solvent effect on lipase AP 12 catalyzed deacetylation of SOA. Type of data set: biochemical, Aspergillus niger. Conditions: lipase AP 12, solvent as labelled, 24 hrs. Here is the method:
as §4
(§5) The pH of commercial powdered enzymes was adjusted in the following way: The enzyme (3 g) was dissolved in 25 ml of an appropriate buffer and the pH adjusted with dilute NaOH or citric/phosphoric acid solution. Cold acetone (37.5 ml at -20° C.) was added and the precipitate collected on a medium porosity glass funnel and dried overnight at 2 millitorr. The protein pellet was ground to a fine powder and equilibrated at 4° C. over saturated aqueous potassium carbonate (RH: 43%) for 24 hrs.
as §3

In a further data set the test system is proleather. Nature of the data set: Solvent effect on proleather catalyzed deacetylation of SOA. Type of data set: biochemical, Bacillus subtilis. Conditions: 24 hrs; for SheptaA: total of 1'-OH and 6'-OH heptaacetates; for SOA / ShexaA: solvent as labelled. Here is the method: as §4, §5, §3
Data set [5] deals with lipase AY 30. Nature of the data set: Effect of the solvent on lipase AY 30 catalyzed deacylation of SOP. As to SheptaP's ([…]): HPLC peak 8.2 min. Type of data set: biochemical, Candida cylindracea. To be noted: for ShexaP (4.2 min) / SheptaP's (8.9 min) / SheptaP's (9.4 min) / SheptaP's ([…]): lipase AY 30, 24 hrs; for ShexaP (4.2 min): HPLC peak 4.2 min; for SheptaP's (8.9 min): HPLC peak 8.9 min; for SheptaP's (9.4 min): HPLC peak 9.4 min; for SheptaP's ([…]): HPLC peak […]; for SOA: lipase AY 30, solvent as labelled, 200 mM butanol, 24 hrs, peak 21.4 min. The protocol:
Identical SOP deacylations were performed with lipase AY 30 or protease type XXIII in numerous anhydrous organic solvents, as shown in Tables 12 and 13.
as §3, with “Solvent” for “Enzyme and Solvent”, “screening” for “Screening”, “SOP deacylation.” for “SOA Deacetylation.”, “lipase AY 30” for “powdered enzyme as received”, “protease type XXIII” for “prepared”, “octapropionate (SOP) and 200mM butanol” for “octaacetate (SOA)”

“And” between values parts separate entries of the source, which are not always exact repeats. Equal values may be shown once. Read-outs that look alike come from different tables or passages of the source.

The term log P denotes the decadic logarithm of the partition coefficient of the neutral form, usually between octanol and water. With `CCCCOCC` [butyl ethyl ether], the SOA worked out at 96.0% in data set [1]; 81.4% on alcalase; 73.9% with lipase AY 30 [2]; 97.8% in data set [3]; 81.6% in the data set on lipase AP 12. Also, the SheptaA in data set [1] came out at 4.0%; at alcalase it was 16.9%; with lipase AY 30 [2], 21.4%; in data set [3] it was 2.2%; in the data set on lipase AP 12, 16.3%. The ShexaA was 1.7% at alcalase, 4.7% in the data set on lipase AY 30 [2], 0% in data set [3] and 2.1% in the data set with lipase AP 12. In data set [4] (from Laane et al.), the “log P” value is given as 1.9.

`CCCCOC(C)=O` [n-butyl acetate]: in data set [1], the SOA stood at 97.6% and the SheptaA is 2.4%. Besides, on alcalase, the SheptaA turned out to be 2.4%, the SOA is reported as 97.6% and the ShexaA was 0%. Besides, in the data set with lipase AY 30 [2], the SOA is recorded as 95.2%, the SheptaA came to 4.6% and the ShexaA was 0.4%. In the data set on proleather, this compound yielded a SheptaA of 16.5%, an SOA of 81.3% and a ShexaA of 2.2%. Also, in data set [4] (from Laane et al.), the “log P” value is recorded as 1.7. For the same compound, in the data set on lipase AP 12, the SOA came out at 97.6%, the SheptaA came to 2.4% and the ShexaA worked out at 0%. Moreover, in the data set on lipase AY 30 [5], the “ShexaP (4.2 min)” value turned out to be 0%, the “SheptaP's (8.9 min)” value is given as 0%, the “SheptaP's (9.4 min)” value stood at 0.7% and the “SheptaP's ([…])” value stood at 1.4%. In addition, the SOA with lipase AY 30 [5] is 97.9%.

Regarding `COc1ccccc1` [anisole], the SOA in data set [1] stood at 98.2%; at alcalase, 96.1%; in the data set with lipase AY 30 [2], 86.1%; in data set [3], 98.0%; in the data set with proleather, 79.2%; in the data set on lipase AP 12 it was 96.2%. Moreover, the SheptaA in data set [1] stood at 1.2%; at alcalase it was 3.9%; with lipase AY 30 [2] it was 9.6%; in data set [3] it was 2.0%; with proleather, 19.4%; with lipase AP 12, 3.8%. The ShexaA is 0% on alcalase; 4.3% with lipase AY 30 [2]; 0% in data set [3]; 1.4% in the data set with proleather; 0% with lipase AP 12. The “log P” value in data set [4] is 2.1.

For the compound `CCCOCCC` [dipropyl ether], the SOA in data set [1] was determined as 93.4%; on alcalase, 83.9%; with lipase AY 30 [2], 51.6%; in data set [3], 92.9%; in the data set with proleather, 75.2%; in the data set on lipase AP 12 it was 81.8%. For the same compound, the SheptaA in data set [1] stood at 6.6%; on alcalase, 14.5%; in the data set on lipase AY 30 [2], 32.4%; in data set [3], 6.5%; in the data set with proleather it was 21.5%; in the data set with lipase AP 12, 15.9%. The ShexaA at alcalase amounted to 1.6%; with lipase AY 30 [2] it was 16.0%; in data set [3] it was 0.6%; in the data set on proleather, 3.3%; with lipase AP 12, 2.3%. In addition, the “log P” value in data set [4] (from Laane et al.) is 1.9.

For the compound `ClC(Cl)(Cl)Cl` [CCl4, carbon tetrachloride], in data set [1], the SOA is given as 97.5% and the SheptaA came out at 2.5%. On alcalase, this compound displayed a SheptaA of 5.2%, an SOA of 94.8% and a ShexaA of 0%. Also, in the data set on lipase AY 30 [2], the SOA came to 86.9%, the SheptaA is 10.4% and the ShexaA worked out at 2.7%. In data set [3], this compound had an SOA of 98.6%, a ShexaA of 0% and a SheptaA of 1.4%. In the data set with proleather, this compound displayed a SheptaA of 9.6%, an SOA of 89.1% and a ShexaA of 1.3%. Besides, in data set [4] (from Laane et al.), the lipophilicity (log P) is 3.0 and 3.1. In the data set with lipase AP 12, the SOA is 95.1%, the SheptaA amounted to 4.3% and the ShexaA was 0.6%. Also, in the data set on lipase AY 30 [5], the “ShexaP (4.2 min)” value came to 0%, the “SheptaP's (8.9 min)” value was 0%, the “SheptaP's (9.4 min)” value turned out to be 0.7% and the “SheptaP's ([…])” value turned out to be 1.1%. This compound came in with an SOA with lipase AY 30 [5] of 98.2%.

`COC(C)(C)C` [t-butyl methyl ether]: in data set [1], the SOA turned out to be 96.0% and the SheptaA was found to be 4.0%. Moreover, at alcalase, the SheptaA was 6.8%, the SOA was determined as 92.6% and the ShexaA worked out at 0.6%. Further, in the data set on lipase AY 30 [2], the SOA was 61.6%, the SheptaA came out at 28.8% and the ShexaA was 9.6%. In data set [3], this compound gave an SOA of 97.3%, a ShexaA of 0% and a SheptaA of 2.7%. In the data set on proleather, this compound yielded a SheptaA of 24.4%, an SOA of 72.4% and a ShexaA of 3.2%. Also, the “log P” value in data set [4] (from Laane et al.) is listed as 1.3. In the data set on lipase AY 30 [5], the “ShexaP (4.2 min)” value is on record as 0.8%, the “SheptaP's (8.9 min)” value is given as 0.3%, the “SheptaP's (9.4 min)” value came out at 5.9% and the “SheptaP's ([…])” value came out at 4.3%. For the same compound, in the data set with lipase AY 30 [5], the SOA is given as 88.7%.

In data set [1], `CC(C)OC(C)C` [diisopropyl ether] gave an SOA of 85.7% and a SheptaA of 14.3%. At alcalase, this compound returned a SheptaA of 22.3%, an SOA of 75.2% and a ShexaA of 2.5%. In the data set with lipase AY 30 [2], the SOA is 29.6%, the SheptaA came to 39.6% and the ShexaA came out at 30.9%. In data set [3], this compound displayed an SOA of 89.3%, a ShexaA of 0.8% and a SheptaA of 9.9%. In addition, in the data set with proleather, the SheptaA turned out to be 25.9%, the SOA came out at 70.6% and the ShexaA is 3.5%. Further, the “log P” value in data set [4] was 1.9. Further, in the data set on lipase AP 12, the SOA is 82.7%, the SheptaA amounted to 15.7% and the ShexaA stood at 1.6%. For the same compound, in the data set on lipase AY 30 [5], the “ShexaP (4.2 min)” value is 13.0%, the “SheptaP's (8.9 min)” value was found to be 1.5%, the “SheptaP's (9.4 min)” value amounted to 13.5% and the “SheptaP's ([…])” value was 17.3%. This compound gave an SOA in the data set on lipase AY 30 [5] of 54.7%.

(Values after patent US5445951A, “Regioselective enzymatic deacylation of sucrose esters in anhydrous organic media” (priority 1993, dated 1995).)
